Test results: patent US20170246144A1, “METHOD OF PREVENTING OR TREATING SPINOCEREBELLAR ATAXIA BY ADMINISTRATING SILIBININ” (National Taiwan Normal University, priority 2016, published 2017)

How the values were obtained:
Type in all cases: cell-based, Human
SH-SY5Y cells [1] = experiment: Annexin V-FITC/PI flow cytometry, apoptosis induced by MSG; details: 10 μM, 100 mM MSG, 24 hours
Experimental: 1×10^6 SH-SY5Y cells were treated with 100 mM MSG and 15 μM SB or 10 μM MK801 (MK) for 24 hours. Cells were stained with Annexin-V/PI and the apoptosis was measured with a flow cytometry.
In order to detect the effects of silibinin in inhibiting the apoptosis induced by glutamate in SH-SY5Y cells. The cells were measured by flow cytometry using Annexin V-FITC/propidium iodide (PI) double-labeling method.
SH-SY5Y cells were seeded in dish and were treated with 100 mM MSG in combination of 15 μM silibinin or 10 μM MK801 for 24 hours. The cells were then trypsinized and collected by centrifugation at 2,000 rpm for […] followed by double-staining with Annexin V-FITC and PI. Stained cells were analyzed with a flow cytometry (FACS Sorter, Becton, Dickinson and Company). 10,000 cells were recorded in each experiment.

SH-SY5Y cells [2] = experiment: Chemiluminescence (luminol) analysis of ROS induced by MSG
Experimental: FIG. 6A: The ROS productions in 1×10^6 SH-SY5Y cells were measured by chemiluminescence (CL) analysis and luminol measurement, wherein the control group (Ctrl) was untreated SH-SY5Y cells or the cells were treated with 100 mM MSG, 100 mM MSG+15 μM SB or 100 mM MSG+10 μM MK801 (MK) for 24 hours.
It is known that the cyto-toxicity induced by glutamate is associated with mitochondria dysfunction and the increased production of ROS in neuron. In this embodiment, chemiluminescence analysis was performed to measure the level of ROS in order to understand whether silibinin can inhibit the accumulation of ROS associated with glutamatergic excitotoxicity. […] The emission spectrum was blue light which can be monitored by chemiluminescence detector.
SH-SY5Y cells were seeded in dish (1×10^6 cells/plate) for 24 hours, and then were pre-treated with 15 μM silibinin or 10 μM MK-801 for 1 hour followed by the treatment of 100 mM glutamate for 24 hours. The cells were then washed and suspended in 60 μL RIPA on ice bath followed by stirring and centrifugation at 13,000 rpm for […] at 4° C. The obtained protein sample (200 μL, 20 μg) was mixed with 0.5 mL of 0.2 mM luminol (Sigma). After 5 minutes, chemiluminescence analysis system (CLD-110, Tohoku Electronic Inc. Co. Japan) was performed to determine its chemiluminescence.

SH-SY5Y cells [3] = experiment: JC-1 flow cytometry of mitochondria membrane potential (MMP)
Experimental: FIGS. 7A and 7B show the effects of SB on mitochondria membrane potential (MMP) in SH-SY5Y cells treated with MSG measured by JC-1 staining with a flow cytometry, wherein the control group (Ctrl) was untreated SH-SY5Y cells or the cells were treated with 100 mM MSG, 100 mM MSG+15 μM SB, 100 mM MSG+10 μM MK801 (MK) or 5 μM CCCP (disruptor of electron transport chain) for 12 hours. […] The results were shown as mean±SEM, n=3, *p<0.05, comparing to the MSG treatment group.
In the present embodiment, flow cytometry analysis was used to investigate whether silibinin can prevent the reduction of mitochondria membrane potential induced by glutamate in SH-SY5Y cells.
SH-SY5Y cells were seeded in 6 centimeter dish (1×10^6 cells/plate) for 24 hours, and then were pre-treated with 15 μM silibinin or 10 μM MK-801 for 1 hour followed by the treatment of 100 mM MSG for 12 hours. 5 μM carbonyl cyanide m-chlorophenylhydrazone (CCCP) was added to the positive control group to induce the depolarization of mitochondria membrane potential.
The treated cells were washed, centrifuged and collected, followed by PBS wash and JC-1 dye staining for 30 minutes. The stained cells were re-suspended using phosphate buffer solution and analyzed by a flow cytometry to obtain a 2-dimensional scatter plot. 10,000 cells were recorded for each experiment.

## C[C@]12N[C@H](Cc3ccccc31)c1ccccc12 [MK801]
SH-SY5Y cells [1]
  apoptosis (apoptotic cells): 9.73%
SH-SY5Y cells [2]; 10 μM, 100 mM MSG, 24 hours
  extracellular ROS: unchanged
SH-SY5Y cells [2]; Homo sapiens, SH-SY5Y, 24 h, read-out: inhibition of intracellular ROS
  inhibition at 10 µM: 80%
SH-SY5Y cells [3]; 10 μM + 100 mM MSG
  MMP compared to Ctrl: 90±5%

## N#CC(C#N)=NNc1cccc(Cl)c1 [CCCP, carbonyl cyanide m-chlorophenylhydrazone]
SH-SY5Y cells [3]; 5 μM CCCP, positive control, no MSG
  MMP retained: 18±10%
